In ChEMBL document CHEMBL5724914, “Linking interpersonal differences in gut microbiota composition and drug biotransformation activity” (2024):

Tests used:
[1] = human gut metagenome, 24 h, 2 µM
[2] = (§1) The drug is tested on Z-004 corresponding to metagenome with ENA study accession number: PRJEB37062 and ENA sample accession number: ERS12561804 for biotransformation under anaerobic condition. The drug concentrations were measured over 9 timepoints collected between 0 and 24 hours of incubation by liquid-chromatography-coupled mass spectrometry (LC–MS); conditions: 2 µM
[3] = human gut metagenome, 24 h, 2 µM; remark: listed apart in the source
[4] = (§2) The drug is tested on WLS-220 corresponding to human gut metagenome with ENA study accession number: PRJEB37062 and ENA sample accession number: ERS12561769 for biotransformation under anaerobic condition. The drug concentrations were measured over 9 timepoints collected between 0 and 24 hours of incubation by liquid-chromatography-coupled mass spectrometry (LC–MS); conditions: 2 µM
[5] = human gut metagenome, 24 h, 2 µM; remark: listed apart in the source
[6] = as §2, with “Z-013” for “WLS-220”, “rabbit” for “human”, “ERS12561813” for “ERS12561769”; conditions: 2 µM
[7] = human gut metagenome, 24 h, 2 µM; remark: listed apart in the source
[8] = human gut metagenome, 24 h, 2 µM; remark: listed apart in the source
[9] = as §2, with “WLS-170” for “WLS-220”, “ERS12561762” for “ERS12561769”; conditions: 2 µM
[10] = human gut metagenome, 24 h, 2 µM; remark: listed apart in the source
[11] = as §2, with “WLS-010” for “WLS-220”, “ERS12561743” for “ERS12561769”; conditions: 2 µM
[12] = human gut metagenome, 24 h, 2 µM; remark: listed apart in the source
[13] = as §2, with “WLS-069” for “WLS-220”, “ERS12561748” for “ERS12561769”; conditions: 2 µM
[14] = as §2, with “WLS-006” for “WLS-220”, “ERS12561741” for “ERS12561769”; conditions: 2 µM
[15] = human gut metagenome, 24 h, 2 µM; remark: listed apart in the source
[16] = as §1, with “Z-010” for “Z-004”, “ERS12561810” for “ERS12561804”; conditions: 2 µM
[17] = human gut metagenome, 24 h, 2 µM; remark: listed apart in the source
[18] = human gut metagenome, 24 h, 2 µM; remark: listed apart in the source
[19] = human gut metagenome, 24 h, 2 µM; remark: listed apart in the source
[20] = human gut metagenome, 24 h, 2 µM; remark: listed apart in the source
Further: call rule not given here.

| Structure (SMILES) | Bacterial Biotransformation [1] | Bacterial Biotransformation [2] | Bacterial Biotransformation [3] | Bacterial Biotransformation [4] | Bacterial Biotransformation [5] | Bacterial Biotransformation [6] | Bacterial Biotransformation [7] | Bacterial Biotransformation [8] | Bacterial Biotransformation [9] | Bacterial Biotransformation [10] | Bacterial Biotransformation [11] | Bacterial Biotransformation [12] | Bacterial Biotransformation [13] | Bacterial Biotransformation [14] | Bacterial Biotransformation [15] | Bacterial Biotransformation [16] | Bacterial Biotransformation [17] | Bacterial Biotransformation [18] | Bacterial Biotransformation [19] | Bacterial Biotransformation [20] |
| --- | --- | --- | --- | --- | --- | --- | --- | --- | --- | --- | --- | --- | --- | --- | --- | --- | --- | --- | --- | --- |
| Nc1ccc(/N=N/c2ccccc2)c(N)n1 [PHENAZOPYRIDINE] | Compound metabolized | Compound metabolized | Compound metabolized | Compound metabolized | Compound metabolized | Compound metabolized | Compound metabolized | Compound metabolized | Compound metabolized | Compound metabolized | Compound metabolized | Compound metabolized | Compound metabolized | Compound metabolized | Compound metabolized | Compound metabolized | Compound metabolized | Compound metabolized | Compound metabolized | Compound metabolized |
| O=C(O)CCc1nc(-c2ccccc2)c(-c2ccccc2)o1 [OXAPROZIN] | Compound metabolized | Compound NOT metabolized | Compound metabolized | Compound metabolized | Compound metabolized | Compound NOT metabolized | Compound metabolized | Compound metabolized | Compound metabolized | Compound metabolized | Compound metabolized | Compound metabolized | Compound metabolized | Compound metabolized | Compound metabolized | Compound metabolized | Compound metabolized | Compound metabolized | Compound NOT metabolized | Compound metabolized |
| Cc1ccc(-c2cc(C(F)(F)F)nn2-c2ccc(S(N)(=O)=O)cc2)cc1 [CELECOXIB] | Compound NOT metabolized | Compound NOT metabolized | Compound metabolized | Compound metabolized | Compound NOT metabolized | Compound NOT metabolized | Compound metabolized | Compound metabolized | Compound NOT metabolized | Compound NOT metabolized | Compound metabolized | Compound NOT metabolized | Compound metabolized | Compound metabolized | Compound NOT metabolized | Compound NOT metabolized | Compound NOT metabolized | Compound metabolized | Compound metabolized | Compound metabolized |
| CCc1nc(N)nc(N)c1-c1ccc(Cl)cc1 [PYRIMETHAMINE] | Compound NOT metabolized | Compound NOT metabolized | Compound metabolized | Compound NOT metabolized | Compound NOT metabolized | Compound NOT metabolized | Compound metabolized | Compound metabolized | Compound NOT metabolized | Compound metabolized | Compound NOT metabolized | Compound NOT metabolized | Compound NOT metabolized | Compound NOT metabolized | Compound NOT metabolized | Compound NOT metabolized | Compound NOT metabolized | Compound NOT metabolized | Compound NOT metabolized | Compound NOT metabolized |
